This is an account of results in publication PMC4179164, “Ophiobolin A from Bipolaris oryzae Perturbs Motility and Membrane Integrities of Porcine Sperm and Induces Cell Death on Mammalian Somatic Cell Lines” (Toxins, 2014).

A word on the EC50: it is the concentration at which the effect is half-maximal.

Values after ≈ are worked out from the molar mass of the structure shown.

What all share (assay type): cell-based
Test [1] deals with boar spermatozoa. Briefly: Dissipation of mitochondrial membrane potential (ΔΨm), JC-1 staining. The procedure: The membrane-permeable 5,5',6,6'-tetrachloro-1,1',3,3'-tetraethylbenzimidazolylcarbocyanine iodide (JC-1) dye is widely used in apoptosis studies to monitor mitochondrial health. […] Therefore, the loss of ΔΨm was seen as decrease in orange fluorescence. In our cases, the staining for […] with JC-1 at 37 °C was enough to get the energized mitochondria stained orange and the plasma membrane green. This short staining was empirically optimized for getting the most reproducible differences between vehicle and toxin exposed sperm cells in Hoornstra et al.. After 2 min incubation, OPA completely depolarized the mitochondrial membrane of the sperm cells at the concentration of 1.25 μg mL^−1 and the exposed cells have already lost approximately 50% of their bright fluorescing mitochondria at the concentration of 500 ng mL^−1 (Figure 3, Table 1).
The dissipation of the ΔΨm on static cells at room temperature was visualized by 5,5',6,6'-tetrachloro-1,1',3,3'-tetraethylbenzimidazolylcarbocyanine iodide (JC-1) (Molecular Probes, Eugene, OR, USA) staining according to Hoornstra et al. with minor modifications as follows: 200 μL of the boar semen exposed with the final OPA concentration of 2.5 μg mL^−1, 1.25 μg mL^−1, 0.5 μg mL^−1 and 0.125 μg mL^−1 was incubated at 37 °C for 2 min, stained with 0.3 μL of JC-1 (1 mg mL^−1 in DMSO) followed by another 2 min at 37 °C and viewed using an epifluorescence microscope (Eclipse E600, Nikon, Tokyo, Japan). All assays (PI + CAM and JC-1 staining) were performed in triplicate and for each sample five microscopic fields containing ca. 20 cells were inspected.

The subject of test [2] is feline fetus lung (FFL) cells. The experiment in a line: Somatic cell toxicity assay (resazurin reduction), FFL. As to conditions: Felis catus, read-out: IC50, cell proliferation. The procedure: Viability assays, based on resazurin-resorufin transformation, represent excellent correlation to generally used reference assays, such as formazan- and tritiated thymidine based methods. In our experiments, proliferating murine neuroblastoma (MNA), feline fetus lung (FFL) and porcine kidney (PK-15) cells were treated with OPA. […] These values were remarkably less than the concentrations causing sperm toxicity and motility inhibition.
Cytotoxicity against somatic cells was tested with feline fetus lung cells (FFL) cultivated as described by Andersson et al. and murine neuroblastoma cells (MNA) as described by Kulonen et al. as well as porcine kidney tubular epithelial cell line (PK-15), cultured as reported earlier. All somatic cell lines were maintained in an atmosphere of 95% air, 5% CO2 and 95% relative humidity at 37 °C on RPMI 1640 (complete medium) in a cell culture cabinet (Heracell 150i; Thermo Fisher Scientific, Vantaa, Finland). The detached cells were seeded onto 96 well microtiter plates and exposed to the purified OPA, the final concentration of which ranged from 48.8 ng mL^−1 to 25 μg mL^−1 containing 10 levels in methanol. […] Then, the plates were analyzed by a microtiter plate reader (Fluoroskan Ascent, Thermo Scientific, Vantaa, Finland) at the excitation and emission wavelengths of 544 nm and 590 nm, respectively. […]
On the technique in general: Alamar Blue is a resazurin reagent that responds to reducing activity.

In test [3] the test system is boar spermatozoa. Briefly: Sperm motility inhibition assay (progressive and rapid motility). How it is done:
Furthermore, their physiological characters including their motility are influenced mainly by membrane potentials and ion fluxes. Thus, the change of sperm motility is able to sensitively indicate the substances causing mitochondrial membrane depolarization even at sublethal doses, which is undetectable with other cell lines. Motility of the spermatozoa was judged after exposure of 30 min and 24 h at room temperature with minor modification of a previously described method.
The sperm motility inhibition assay was done as reported by Andersson et al.. Commercial boar semen obtained from Figen Oy Finland extended in MR-A (Kubus, S.A., Madrid, Spain) containing 27 × 10^6 spermatozoa·mL^−1 was used. The purified OPA was diluted by serial dilutions in methanol obtaining two ranges of concentrations with 4-4 levels from 2500 μg mL^−1 to 250.0 μg mL^−1 and from 50 μg mL^−1 to 5.0 μg mL^−1, for short and long time exposures, respectively. Twenty μL of each dilution was administered to 2 mL of MR-A-diluted boar semen resulting approximately 100 times dilution of the original stock solutions; 20 μL of methanol was added to spermatozoa in the same way as a blank assay. The samples were incubated for 30 min and 24 h at room temperature for short and long term exposure assays, respectively. After exposure, motility was induced in the sperm cells by incubation in 37 °C for 5 min and shaking to provide the sperm cells with oxygen. […]
The above described subjective motility assay was calibrated with an automatic Hamilton Thorne sperm motility analyzer (HTM-S, ver. 7.2; Hamilton-Thorn Research, Danvers, MA, USA). […] Thus the protocol for assessing sperm tail beating as a measure of motility inhibition gave 99% similarity to measurements of the proportion of rapidly motile spermatozoa done with Hamilton Thorne sperm analyzer (HTM-S, ver. 7.2; Hamilton-Thorn Research, Danvers, MA, USA) Toxicity was expressed as the endpoint concentration of the OPA solution, where the progressive and rapid motility of the sperm cells were <50% of the vehicle exposed sperm cells. […]

On to `CC(C)=C[C@H]1C[C@H](C)[C@]2(CC[C@]3(C)C[C@H]4[C@H](C(=O)C[C@@]4(C)O)/C(C=O)=C\C[C@H]32)O1` [OPA, ophiobolin A], for which, in the test with boar spermatozoa [1] (125 ng mL^−1 OPA, JC-1 staining), the “Effect on JC-1 mitochondrial fluorescence” value was “minimal difference compared to the untreated control”. Further, in the test with boar spermatozoa [1] (500 ng mL^−1 OPA, JC-1 staining), the “Loss of bright fluorescing mitochondria” value is on record as “approximately 50%”. Also, the “Concentration completely depolarizing the mitochondrial membrane of the sperm cells” value in the test with boar spermatozoa [1] (JC-1 staining, 2 min incubation at 37 °C) amounted to 1.25 µg/mL. Further, the EC50 is 0.5 µg/mL (≈ 1.25 µM) in the test on boar spermatozoa [1] (Spermatozoa, read-out: Toxic endpoint EC50, Dissipation of ΔΨm); not above 2.5 µg/mL with boar spermatozoa [3] (0.5 h, boar spermatozoa, 30 min exposure at room temperature, read-out: Toxic endpoint EC50, Motility inhibition (30 min)); 0.25 µg/mL (≈ 0.624 µM) with boar spermatozoa [3] (24 h, read-out: Toxic endpoint EC50, Motility inhibition (24 h), boar spermatozoa, 24 h exposure at room temperature). Further, in test [2], the IC50 is 0.0488 µg/mL (≈ 0.122 µM).
